Among the data in US20240067662A1, “KRAS INHIBITORS” (Bristol-Myers Squibb Company, priority 2022, published 2024) are IC50 values, retold here.

GMPPNP-loaded KRAS G12C, sequence (P01116 1-188 isoform P01116-2 G12C): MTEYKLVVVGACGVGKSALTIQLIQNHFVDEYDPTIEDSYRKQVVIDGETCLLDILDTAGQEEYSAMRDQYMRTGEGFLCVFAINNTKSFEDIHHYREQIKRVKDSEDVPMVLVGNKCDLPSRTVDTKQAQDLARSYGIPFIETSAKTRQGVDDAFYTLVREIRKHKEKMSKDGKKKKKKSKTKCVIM

The test has as its target GMPPNP-loaded KRAS G12C (Homo sapiens, UniProt P01116, G12C). Put plainly: KRAS G12C RAF Disruption Assay (HTRF). In kind it is biochemical. Conditions: recombinant GMPPNP-loaded KRAS G12C (5 nM), 20 min with compound; GST-RAF1 RBD (9 nM); HTRF signal; read-out: KRASG12C RAF Disruption Assay (IC50). As for the experimental part:
KRAS^G12C RAF Disruption Assay
This is a functional assay that measures activity of compounds against KRAS-G12C^(ON), i.e., the active form of KRAS G12C. Recombinant GMPPNP-loaded KRAS G12C (5 nM) was treated with compound at room temperature for 20 minutes in assay buffer (50 mM Tris pH 7.5, 100 mM NaCl, 1 mM MgCl2, 1 mM DTT, 100ug/ml BSA). Recombinant GST-RAF1 RBD (9 nM) was added, and the reaction mixture was incubated for 20 minutes. SA-Tb (0.25 nM) was added, and the reaction mixture was incubated for 3 hours. HTRF signal was measured (PerkinElmer Envision), the signal ratio (λem 520/λem 495) was calculated, and IC50 values were calculated from the dose-response curve.
(In general: In TR-FRET formats the signal depends on donor and acceptor labels being close together.)
As a reminder, the IC50 is the concentration that gives 50% inhibition. Consider `C#Cc1cccc2cccc(-c3ncc4c(N5CC6(CCN(C(=O)/C(F)=C/c7ncccn7)CC6)C5)nc(OC[C@@]56CCCN5C[C@H](F)C6)nc4c3F)c12` [Compound 92, (Z)-1-(2-(7-(8-ethynylnaphthalen-1-yl)-8-fluoro-2-(((2R, 7aS)-2-fluorotetrahydro-1H-pyrrolizin-7a(5H)-yl)methoxy)pyrido[4,3-d]pyrimidin-4-yl)-2,7-diazaspiro[3.5]nonan-7-yl)-2-fluoro-3-(pyrimidin-2-yl)prop-2-en-1-one], for which the IC50 came out at 24000 nM.

Regarding `C#Cc1cccc2cccc(-c3ncc4c(N5CCC6C5CCN6C(=O)/C(F)=C/c5ccccn5)nc(OC[C@@]56CCCN5C[C@H](F)C6)nc4c3F)c12` (single isomer, unassigned) [Compound 108], the IC50 is 4300 nM.

As to `N#CC[C@H]1CN(c2nc(OC[C@@]34CCCN3C[C@H](F)C4)nc3c(F)c(-c4cccc(F)c4C(F)(F)F)ncc23)CCN1C(=O)/C(F)=C/c1nccs1` [Example 71, 2-((S)-1-((Z)-2-fluoro-3-(thiazol-2-yl)acryloyl)-4-(8-fluoro-7-(3-fluoro-2-(trifluoromethyl)phenyl)-2-(((2R, 7aS)-2-fluorotetrahydro-1H-pyrrolizin-7a(5H)-yl)methoxy)pyrido[4,3-d]pyrimidin-4-yl)piperazin-2-yl)acetonitrile], the IC50 turned out to be 40 nM.

With `N#Cc1c(N)sc2c(F)ccc(-c3ncc4c(N5CCN(C(=O)/C(F)=C/c6ccccn6)CC5)nc(OC[C@@]56CCCN5C[C@H](F)C6)nc4c3F)c12` [Compound 121, 2-amino-7-fluoro-4-(8-fluoro-4-(4-((Z)-2-fluoro-3-(pyridin-2-yl)acryloyl)piperazin-1-yl)-2-(((7aS)-2-fluorotetrahydro-1H-pyrrolizin-7a(5H)-yl)methoxy)pyrido[4,3-d]pyrimidin-7-yl)benzo[b]thiophene-3-carbonitrile], the IC50 is 8 nM.

On to `C#Cc1cccc2cccc(-c3ncc4c(N5CCC6C5CCN6C(=O)/C(F)=C/c5ccccn5)nc(OC[C@@]56CCCN5C[C@H](F)C6)nc4c3F)c12` (single isomer, unassigned) [Compound 107], for which the IC50 came to 5600 nM.

For `N#CC[C@H]1CN(c2nc(OC[C@@]34CCCN3C[C@H](F)C4)nc3c(F)c(-c4csc5ccccc45)ncc23)CCN1C(=O)/C(F)=C/c1ccccn1` [Example 35, 2-((S)-4-(7-(benzo[b]thiophen-3-yl)-8-fluoro-2-(((2R, 7aS)-2-fluorotetrahydro-1H-pyrrolizin-7a(5H)-yl)methoxy)pyrido[4,3-d]pyrimidin-4-yl)-1-((Z)-2-fluoro-3-(pyridin-2-yl)acryloyl)piperazin-2-yl)acetonitrile], the IC50 worked out at 430 nM.

As to `N#CC[C@H]1CN(c2nc(OC[C@@]34CCCN3C[C@H](F)C4)nc3c(F)c(N4CCOc5cccc(F)c54)ncc23)CCN1C(=O)/C(F)=C/c1ccccn1` [Example 60, 2-((S)-1-((Z)-2-fluoro-3-(pyridin-2-yl)acryloyl)-4-(8-fluoro-7-(5-fluoro-2,3-dihydro-4H-benzo[b][1,4]oxazin-4-yl)-2-(((2R, 7aS)-2-fluorotetrahydro-1H-pyrrolizin-7a(5H)-yl)methoxy)pyrido[4,3-d]pyrimidin-4-yl)piperazin-2-yl)acetonitrile], the IC50 was found to be 180 nM.

Consider `CN1CCC[C@H]1COc1nc(N2CCN(C(=O)/C(F)=C/c3nccs3)CC2)c2cnc(-c3cccc4cccc(Cl)c34)c(F)c2n1` [Compound 22, (S,Z)-1-(4-(7-(8-chloronaphthalen-1-yl)-8-fluoro-2-((1-methylpyrrolidin-2-yl)methoxy)pyrido[4,3-d]pyrimidin-4-yl)piperazin-1-yl)-2-fluoro-3-(thiazol-2-yl)prop-2-en-1-one], for which the IC50 was 1900 nM.

Take `CN1CCC[C@H]1COc1nc(N2CCN(C(=O)/C(F)=C/c3nccs3)[C@@H](CC#N)C2)c2cnc(-c3cc(O)ccc3F)c(F)c2n1` [Example 23, 2-((S)-1-((Z)-2-fluoro-3-(thiazol-2-yl)acryloyl)-4-(8-fluoro-7-(2-fluoro-5-hydroxyphenyl)-2-(((S)-1-methylpyrrolidin-2-yl)methoxy)pyrido[4,3-d]pyrimidin-4-yl)piperazin-2-yl)acetonitrile]: the IC50 was 180 nM.

Turning to `CN1CCC[C@H]1COc1nc(N2CCN(C(=O)/C(F)=C/c3nccs3)[C@@H](CC#N)C2)c2cnc(-c3cccc4cccc(Cl)c34)c(F)c2n1` [Compound 21A, 2-((S)-4-(7-(8-chloronaphthalen-1-yl)-8-fluoro-2-(((S)-1-methylpyrrolidin-2-yl)methoxy)pyrido[4,3-d]pyrimidin-4-yl)-1-((Z)-2-fluoro-3-(thiazol-2-yl)acryloyl)piperazin-2-yl)acetonitrile], the IC50 amounted to 67 nM.

Consider `N#CC[C@H]1CN(c2nc(OC[C@@]34CCCN3C[C@H](F)C4)nc3c(F)c(-c4cc(F)ccc4C(F)F)ncc23)CCN1C(=O)/C(F)=C/c1nccs1` [Example 43, 2-((S)-4-(7-(2-(difluoromethyl)-5-fluorophenyl)-8-fluoro-2-(((2R, 7aS)-2-fluorotetrahydro-1H-pyrrolizin-7a(5H)-yl)methoxy)pyrido[4,3-d]pyrimidin-4-yl)-1-((Z)-2-fluoro-3-(thiazol-2-yl)acryloyl)piperazin-2-yl)acetonitrile], for which the IC50 worked out at 1100 nM.

As to `C#Cc1cccc2cccc(-c3ncc4c(N(C)[C@H]5CN(C(=O)/C(F)=C/c6ccccn6)C[C@H]5F)nc(OC[C@@]56CCCN5C[C@H](F)C6)nc4c3F)c12` [Compound 128, (Z)-1-((3S,4R)-3-((7-(8-ethynylnaphthalen-1-yl)-8-fluoro-2-(((2R, 7aS)-2-fluorotetrahydro-1H-pyrrolizin-7a(5H)-yl)methoxy)pyrido[4,3-d]pyrimidin-4-yl)(methyl)amino)-4-fluoropyrrolidin-1-yl)-2-fluoro-3-(pyridin-2-yl)prop-2-en-1-one], the IC50 stood at 30 nM.

As for `C#Cc1cccc2cccc(-c3ncc4c(N(C)C5CCN(C(=O)/C(F)=C/c6nccs6)CC5)nc(OC[C@@]56CCCN5C[C@H](F)C6)nc4c3F)c12` [Compound 132, (Z)-1-(4-((7-(8-ethynylnaphthalen-1-yl)-8-fluoro-2-(((2R, 7aS)-2-fluorotetrahydro-1H-pyrrolizin-7a(5H)-yl)methoxy)pyrido[4,3-d]pyrimidin-4-yl)(methyl)amino)piperidin-1-yl)-2-fluoro-3-(thiazol-2-yl)prop-2-en-1-one], the IC50 was found to be 16800 nM.

Take `C#Cc1c(F)ccc2cc(O)cc(-c3ncc4c(N5C[C@H]6CC[C@@H](C5)N6C(=O)/C(F)=C/c5cccnn5)nc(OC[C@@]56CCCN5C[C@H](F)C6)nc4c3F)c12` [Compound 12, (Z)-1-((1R, 5S)-3-(7-(8-ethynyl-7-fluoro-3-hydroxynaphthalen-1-yl)-8-fluoro-2-(((2R, 7aS)-2-fluorotetrahydro-1H-pyrrolizin-7a(5H)-yl)methoxy)pyrido[4,3-d]pyrimidin-4-yl)-3,8-diazabicyclo[3.2.1]octan-8-yl)-2-fluoro-3-(pyridazin-3-yl)prop-2-en-1-one]: the IC50 was 11 nM.

Take `C#Cc1c(F)ccc2cc(O)cc(-c3ncc4c(N5CC6CCC(C5)N6C(=O)/C(Cl)=C/c5ccccn5)nc(OC[C@@]56CCCN5C[C@H](F)C6)nc4c3F)c12` [Compound 8, (Z)-1-((1R, 5S)-3-(7-(8-ethynyl-7-fluoro-3-hydroxynaphthalen-1-yl)-8-fluoro-2-(((2R, 7aS)-2-fluorotetrahydro-1H-pyrrolizin-7a(5H)-yl)methoxy)pyrido[4,3-d]pyrimidin-4-yl)-3,8-diazabicyclo[3.2.I]octan-8-yl)-2-chloro-3-(pyridin-yl)prop-2-en-1-one]: the IC50 was 1300 nM.

Consider `CN(c1nc(OC[C@@]23CCCN2C[C@H](F)C3)nc2c(F)c(-c3cccc4cccc(C#N)c34)ncc12)[C@@H]1CCN(C(=O)/C(F)=C/c2nccs2)C1` [Compound 114, 8-(8-fluoro-4-(((R)-1-((Z)-2-fluoro-3-(thiazol-2-yl)acryloyl)pyrrolidin-3-yl)(methyl)amino)-2-(((2R, 7aS)-2-fluorotetrahydro-1H-pyrrolizin-7a(5H)-yl)methoxy)pyrido[4,3-d]pyrimidin-7-yl)-1-naphthonitrile], for which the IC50 worked out at 719 nM.

As for `C#Cc1c(F)ccc2cc(O)cc(-c3ncc4c(N5CCN(C(=O)/C(F)=C/c6cnccn6)CC5)nc(OC[C@@]56CCCN5C[C@H](F)C6)nc4c3F)c12` [Example 56, (Z)-1-(4-(7-(8-ethynyl-7-fluoro-3-hydroxynaphthalen-1-yl)-8-fluoro-2-(((2R, 7aS)-2-fluorotetrahydro-1H-pyrrolizin-7a(5H)-yl)methoxy)pyrido[4,3-d]pyrimidin-4-yl)piperazin-1-yl)-2-fluoro-3-(pyrazin-2-yl)prop-2-en-1-one], the IC50 stood at 6 nM.

Consider `C#Cc1cccc2cccc(-c3ncc4c(N5CCN(C(=O)/C(F)=C/c6nccs6)CC5)nc(OC[C@@]56CCCN5C[C@H](F)C6)nc4c3F)c12` [Example 47, (Z)-1-(4-(7-(8-ethynylnaphthalen-1-yl)-8-fluoro-2-(((2R, 7aS)-2-fluorotetrahydro-1H-pyrrolizin-7a(5H)-yl)methoxy)pyrido[4,3-d]pyrimidin-4-yl)piperazin-1-yl)-2-fluoro-3-(thiazol-2-yl)prop-2-en-1-one], for which the IC50 amounted to 100 nM.

`N#CC[C@H]1CN(c2nc(OC[C@@]34CCCN3C[C@H](F)C4)nc3c(F)c(-c4cc(F)ccc4F)ncc23)CCN1C(=O)/C(F)=C/c1ccccn1` [Example 40, 2-((S)-4-(7-(2,5-difluorophenyl)-8-fluoro-2-(((2R, 7aS)-2-fluorotetrahydro-1H-pyrrolizin-7a(5H)-yl)methoxy)pyrido[4,3-d]pyrimidin-4-yl)-1-((Z)-2-fluoro-3-(pyridin-2-yl)acryloyl)piperazin-2-yl)acetonitrile]: the IC50 was determined as 880 nM.
